The results in this text go back to patent US4269855A, “(3-Alkylamino-2-hydroxypropoxy)-furan-2-carboxylic acid anilides and physiologically tolerated acid addition salts thereof and medicaments containing them” (A. Nattermann & Cie. GmbH, priority 1979, dated 1981).

Structures can show the parent of a compound that is named as a salt.

A short description of one data set: in vivo. The procedure:
The acute toxicity was determined on NMRI mice by intravenous or oral administration of increasing doses of the compounds of the invention. The death rates were determined within the 7-day follow-up period and the average lethal dose was determined by probit analysis.

In data set [1] the target is β-receptor (Canis lupus familiaris, UniProt P79148). Put plainly: Inhibition of isoprenalin-induced increase in contractile force (dp/dtmax), anaesthetised dogs. It is filed as in vivo, mongrel dogs. Conditions: for ED50: dog, anaesthetised dogs, isoprenalin 0.5 μg/kg i.v., determined graphically.
Protocol: (§1) The ventricular pressure of mongrel dogs, anesthetized with chloralose-urethane, was determined, together with other circulation parameters, with the aid of a Millar tip catheter (type PC 350 A, Millar Instruments, Houston, Tex.) introduced into the left heart ventricle, and the maximum rate of pressure increase (dp/dtmax) was determined by differentiation (HSE operational amplifier, Hugstetten). This rate serves as a measure of the contractile force.
For data set [2], the target named is T1, β-receptor (Cavia porcellus, UniProt H0W3H1). Put plainly: Inhibition of isoprenalin-induced increase in contractile force, isolated guinea pig left auricle. Also on record: species or system guinea pig (Pirbright White). Conditions: Bath, isoprenalin 3.2×10^-8 molar, probit analysis, read-out: ED50, inhibition of increase in contractile force induced by isoprenaline.

Data set [3] deals with T1, β-receptor. Briefly: Inhibition of isoprenalin-induced increase in pulse rate, isolated guinea pig right auricle. Further details: species or system guinea pig (Pirbright White). Conditions: Bath, isoprenalin 5.8×10^-9 molar, probit analysis, read-out: ED50, inhibition of increase in pulse rate induced by isoprenalin.
The subject of data set [4] is β-receptor. Put plainly: β-receptor blocking action, isolated organs and whole animal (overall statement). Conditions: in words.
Protocol: as §1

Sequence of β-receptor (Canis lupus familiaris, UniProt P79148) (P79148 whole entry): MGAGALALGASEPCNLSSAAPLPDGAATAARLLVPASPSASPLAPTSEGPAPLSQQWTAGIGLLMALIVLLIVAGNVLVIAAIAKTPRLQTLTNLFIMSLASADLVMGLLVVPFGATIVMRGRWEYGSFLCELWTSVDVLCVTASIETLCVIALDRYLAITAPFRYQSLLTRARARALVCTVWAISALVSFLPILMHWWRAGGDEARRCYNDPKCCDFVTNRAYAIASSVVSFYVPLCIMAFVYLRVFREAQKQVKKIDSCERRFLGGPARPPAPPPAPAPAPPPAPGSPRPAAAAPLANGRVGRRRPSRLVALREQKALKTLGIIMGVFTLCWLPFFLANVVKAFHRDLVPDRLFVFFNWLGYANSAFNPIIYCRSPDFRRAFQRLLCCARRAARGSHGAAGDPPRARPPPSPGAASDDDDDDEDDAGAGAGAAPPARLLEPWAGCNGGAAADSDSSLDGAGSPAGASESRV
T1 sequence (H0W3H1 1-470): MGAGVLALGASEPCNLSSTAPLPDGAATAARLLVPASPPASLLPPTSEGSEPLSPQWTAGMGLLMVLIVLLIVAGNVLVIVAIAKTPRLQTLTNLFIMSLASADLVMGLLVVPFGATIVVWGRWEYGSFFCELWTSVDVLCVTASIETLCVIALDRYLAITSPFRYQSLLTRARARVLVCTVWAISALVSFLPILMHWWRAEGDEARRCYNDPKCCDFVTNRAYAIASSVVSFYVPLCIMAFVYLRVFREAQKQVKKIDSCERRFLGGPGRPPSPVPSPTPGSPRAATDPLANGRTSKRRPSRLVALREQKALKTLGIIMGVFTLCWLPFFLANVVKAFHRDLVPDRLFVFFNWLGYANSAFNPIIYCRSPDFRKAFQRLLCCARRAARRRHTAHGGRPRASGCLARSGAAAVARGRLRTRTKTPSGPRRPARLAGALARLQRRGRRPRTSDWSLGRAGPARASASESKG

For the molecule `CC(C)(C)NCC(O)COc1ccccc1NC(=O)c1ccco1` (centres unmarked) [Example 1, 2'-(2-hydroxy-3-tert.-butylaminopropoxy)-furan-2-carboxylic acid anilide], the selectivity ratio in the data set “in vivo” (in vivo) came out at 4560. The toxicity result in the data set “in vivo” (in words) was “very favorable”. Further, the LD50 (in general, the dose at which mortality reaches 50%) at 168 h in the data set “in vivo” (mouse, in vivo, iv) was 55 mg/kg; in “in vivo” (mouse, in vivo, po), 502 mg/kg. Further, the “"therapeutic range" quotient (LD50/ED50), times as high as the compounds already known” value in “in vivo” (versus propranolol hydrochloride and practolol hydrochloride) is 1.5-3 times. Besides, the figures for the ED50 at β-receptor [1] (intraduodenal) and on β-receptor [1] (intravenous) were 0.11 mg/kg and 0.025 mg/kg, respectively. In addition, the “action when administered intraduodenally” value on β-receptor [1] (intraduodenal, in words) is given as “good action”. Further, the IC50 at β-receptor [2] was determined as 0.29 µM; at β-receptor [3], 0.098 µM. Moreover, the “β-receptor blocking action / pharmacological activity” value in the data set on β-receptor [4] was “strong β-receptor blocking action both on isolated organs and on the whole animal”.
`CC(=O)Nc1ccc(OCC(O)CNC(C)C)cc1` (centres unmarked) [Practolol Hydrochloride, reference compound]: the selectivity ratio in “in vivo” (in vivo) was 3190. For the same molecule, the “LD50, acute toxicity” value in the data set “in vivo” (mouse, in vivo, iv, 168 h) is reported as 148 mg/kg. Further, the LD50 at 168 h in the data set “in vivo” (mouse, in vivo, po) amounted to 2870 mg/kg. For the same molecule, the ED50 (usually the dose at which the effect has come halfway, by size or by number of responders) at β-receptor [1] (intraduodenal) was determined as 0.9 mg/kg. The IC50 at β-receptor [2] came to 2.3 µM; at β-receptor [3], 0.71 µM.
